For data set [1], the system named is multidrug resistant HIV-1 strain RT-MDR. In words: microbe, parasite or virus in culture. In kind it is cell-based. Conditions: for times more effective against RT-MDR than against HTLVIIIB: ratio RT-MDR vs HTLVIIIB; for times more potent than AZT against RT-MDR: vs AZT; for times more potent than MKC-442 against RT-MDR: vs MKC-442; for times more potent than delavirdine against RT-MDR: vs delavirdine; for times more potent than nevirapine against RT-MDR: vs nevirapine; for times more potent than trovirdine against RT-MDR: vs trovirdine. As for the experimental part:
(§1) In addition, the anti-HIV activity of the compounds was measured by determining their ability to inhibit the replication of the HIV-1 strains HTLVIIIB, RT-MDR, A17, and A17 variant in peripheral blood mononuclear cells (PBMC) from healthy volunteer donors, using the method described in Uckun et.al., 1998, Antimicrobial Agents and Chemotherapy 42:383.
(§2) Normal human peripheral blood mononuclear cells (PBMNC) from HIV-negative donors were cultured 72 hours in RPMI 1640 supplemented with 20% (v/v) heat-inactivated fetal bovine serum (FBS), 3% interleukin-2,2 mM L-glutairine, 25 mM HEPES, 2 μL, NAHCO, […] gentamicin, and 4 μg/mL phytohemagglutinin prior to exposure to HIV-1 or other HIV strain at a multiplicity of infection (MOI) of 0.1 during a one-hour adsorption period at 37° C. in a humidified 5% CO2 atmosphere. Subsequently, cells were cultured in 96-well microplates (100 μL/well; 2×10^6 cells/mL, triplicate wells) in the presence of various inhibitor concentrations. Aliquots of culture supernatants were removed from the wells on the 7th day after infection for p24 antigen p24 enzyme immunoassays (EIA), as previously described in Erice et al., 1993, Antimicrob. Ag. Chemotherapy 37:385-838. The applied p24 EIA was the unmodified kinetic assay commercially available from Coulter Corporation/Immunotech, Inc. (Westbrook, Me.). Percent inhibition of viral replication was calculated by comparing the p24 values from the test substance-treated infected cells with p24 values from untreated infected cells (i.e, virus controls).
(§3) RT-MDR was obtained through the AIDS Research and Reference Reagent Program, from Dr. Bendan Larder, and is described in Larder et al., 1993, Nature, 365, 451-453.

For data set [2], the system named is RT Y181C mutant A17 strain. In words: microbe, parasite or virus in culture. In kind it is cell-based, HIV-1. Conditions: for IC50: read-out: IC50 A17. As for the experimental part:
as §1, §2, §3

Data set [3] is described as follows: Microculture tetrazolium assay (MTA, XTT) for cytotoxicity. In kind it is cell-based. Conditions: for CC50: cytotoxicity, XTT; for toxicity at effective concentrations: in words. For orientation: Tetrazolium assays rely on reduction of a dye to a coloured formazan, in cell work by metabolically active cells.
For another data set, the system named is HIV-1 strain HTLVIIIB
In words: Inhibition of HIV p24 antigen production in PBMC, strain HTLVIIIB
In kind it is cell-based. The conditions noted are these: read-out: IC50 HTLVIIIB
As for the experimental part:
as §1, §2, §3

In data set [4] the test system is A17 variant with both Y181C and K103N mutations in RT. In words: microbe, parasite or virus in culture. In kind it is cell-based, HIV-1. The conditions noted are these: read-out: IC50 A17 variant. How it is done: as §1, §2, §3
The target of data set [5] is T1, purified recombinant HIV RT (Human immunodeficiency virus type 1 group M subtype B, UniProt P03366).
T1 construct: Addition of 10 mU of recombinant HIV RT
Briefly: Purified RT assay, cell-free Quan-T-RT scintillation proximity assay. In kind it is biochemical. As for the experimental part:
In the assay, a DNA/RNA template is bound to SPA beads via a biotin/strepavidin linkage. The primer DNA is a 16-mer oligo(T) which has been annealed to a poly(A) template. The primer/template is bound to a strepavidin-coated SPA bead.
^3H-TTP is incorporated into the primer by reverse transcription. […] The compound being tested was added to the reaction mixture at 0.001 μM-100 μM concentrations. […] The reaction was stopped by addition of 0.2 ml of 120 mM EDTA. The samples were counted in an open window using a Beckman LS 7600 instrument and IC50 values were calculated by comparing the measurements to untreated samples.
Background: SPA uses beads or plates that emit light when radiolabelled molecules are held near them.

Where [6] appears, read: ranking order of potency, read-out: IC50 against RT-MDR.
[7] abbreviates: Human immunodeficiency virus 1, PBMC, 168 h.
Where [8] appears, read: Human immunodeficiency virus 1, PBMC, 168 h, read-out: IC50 RT-MDR.
[9] abbreviates: Human immunodeficiency virus 1, PBMC, read-out: IC50 against RT-MDR.
Where [10] appears, read: recombinant HIV RT, 37° C., 1 hour, read-out: IC50 rRT.

Where two headings read alike, the source gives them in different places.

Take `Cc1cn([C@H]2C[C@H](N=[N+]=[N-])[C@@H](CO)O2)c(=O)[nH]c1=O` [AZT, reference compound]: the half-inhibitory concentration (IC50) – broadly, the point on the concentration scale where inhibition reaches its midpoint – in data set [1] (setting [6]) came out at 200 nM; in data set [2] (p24 production in PBMC, day 7), 6 nM. The CC50 (commonly the concentration at which the toxic effect on the cells reaches its halfway point) in data set [3] is > 100000 nM.

In the case of `CC(C)Nc1cccnc1N1CCN(C(=O)c2cc3cc(NS(C)(=O)=O)ccc3[nH]2)CC1` [Delavirdine, reference compound], the IC50 with HIV-1 strain HTLVIIIB (setting [7]) is 9 nM; in data set [1] (setting [8]), 400 nM; in data set [1] (setting [9]) it was 400 nM; in data set [4] (setting [7]) it was > 100000 nM; in data set [2] (setting [7]), 50000 nM. The same molecule showed a cytotoxic concentration (CC50) in data set [3] of 3600 nM.

As for `S=C(NCCC1=CCCCC1)Nc1ccc(Br)cn1` [HI-346, N-[2-(5-Bromopyridinyl)]-N′-[2-(1-Cyclohexenyl)ethyl]thiourea], the melting point – broadly, the temperature, or range, at which the solid turns liquid – is 172 to 173 °C. The IC50 in data set [5] amounted to 400 nM. In addition, in the data set on HIV-1 strain HTLVIIIB (setting [7]), the IC50 was found to be 3 nM. Further, the IC50 in data set [1] (setting [8]) was found to be 1 nM. For the same molecule, the 50% inhibitory concentration (IC50) in data set [1] (setting [9]) came out at 1 nM. In data set [1], the “times more effective against RT-MDR than against HTLVIIIB” value stood at 3 times, the “times more potent than AZT against RT-MDR” value stood at 200 times, the “times more potent than MKC-442 against RT-MDR” value stood at 300 times and the “times more potent than delavirdine against RT-MDR” value is recorded as 400 times. In data set [1], the “times more potent than nevirapine against RT-MDR” value was found to be 5000 times and the “times more potent than trovirdine against RT-MDR” value is reported as 20 times. In data set [4] (setting [7]), the IC50 was determined as 18700 nM. In data set [3], the CC50 is > 100000 nM and the “toxicity at effective concentrations” value was “Neither compound exhibited significant toxicity”.

Molecule `FC(F)(F)c1ccc(NC(=S)NCCC2=CCCCC2)nc1` [HI-347, N-[2-(5-Trifluoromethylpyridinyl)]-N′-[2-(1-Cyclohexenyl)ethyl]thiourea] displayed a melting point of 161 to 162 °C. The IC50 in data set [5] worked out at 4000 nM. Also, the 50% inhibitory concentration (IC50) with HIV-1 strain HTLVIIIB (setting [7]) worked out at 79 nM. In addition, the IC50 in data set [1] (setting [8]) was determined as 38 nM. In addition, in data set [4] (setting [7]), the IC50 was > 100000 nM. Moreover, the IC50 in data set [2] (setting [7]) came out at 300 nM. For the same molecule, the cytotoxic concentration (CC50) in data set [3] was > 100000 nM.

`CC1(C)C2CCC(CNC(=S)Nc3ccc(Br)cn3)C1C2` (stereo not drawn) [HI-444, N-[2-(5-Bromopyridinyl)]-N′-[2-(2-Myrtanyl)]thiourea]: the melting point lay within 180 to 181 °C. Besides, in data set [5] (setting [10]), the IC50 is > 100000 nM.

With `S=C(NCCC1=CCCCC1)Nc1ccc(Cl)cn1` [HI-445, N-[2-(5-Chloropyridinyl)]-N′-[2-(1-Cyclohexenyl)ethyl]thiourea], the melting point came out at 165 °C. The half-inhibitory concentration (IC50) in data set [5] is 500 nM. Further, the concentration for half-maximal inhibition (IC50) with HIV-1 strain HTLVIIIB (setting [7]) stood at 3 nM. For the same molecule, the IC50 in data set [1] (setting [8]) came to 1 nM. Also, in data set [1] (setting [9]), the half-inhibitory concentration (IC50) was found to be 1 nM. Further, in data set [1], the “times more effective against RT-MDR than against HTLVIIIB” value came to 3 times, the “times more potent than AZT against RT-MDR” value is reported as 200 times, the “times more potent than MKC-442 against RT-MDR” value is reported as 300 times and the “times more potent than delavirdine against RT-MDR” value was found to be 400 times. Further, in data set [1], the “times more potent than nevirapine against RT-MDR” value was determined as 5000 times and the “times more potent than trovirdine against RT-MDR” value was found to be 20 times. Moreover, the IC50 in data set [4] (setting [7]) amounted to 30000 nM. In data set [2] (setting [7]), the concentration for half-maximal inhibition (IC50) was determined as 68 nM. Moreover, in data set [2] (vs nevirapine or delavirdine), the “fold more effective than nevirapine or delavirdine against A17” value is > 1,400 fold. Further, in data set [2] (vs trovirdine), the “fold more effective than trovirdine against A17” value is given as > 7 fold. In addition, in data set [3], the CC50 is > 100000 nM and the “toxicity at effective concentrations” value is “Neither compound exhibited significant toxicity”.

As for `S=C(NCCC1C2CC3CC(C2)CC1C3)Nc1ccc(Br)cn1` (stereo not drawn) [HI-504, N-[2-(5-Bromopyridinyl)]-N′-[2-(2-Adamantyl)]thiourea], the IC50 in data set [5] (setting [10]) is > 100000 nM.

As for `CCOCn1c(Cc2ccccc2)c(C(C)C)c(=O)[nH]c1=O` [MKC-442, reference compound], the values for the concentration for half-maximal inhibition (IC50) in data set [5] (setting [10]), in data set [1] (setting [8]) and in data set [1] (setting [9]) were 800 nM, 300 nM and 300 nM, respectively. Further, the half-maximal cytotoxic concentration (CC50) in data set [3] is > 100000 nM.

For the molecule `Cc1ccnc2c1NC(=O)c1cccnc1N2C1CC1` [Nevirapine, reference compound], the IC50 with HIV-1 strain HTLVIIIB (setting [7]) was 34 nM; in data set [1] (setting [8]), 5000 nM; in data set [1] (setting [9]), 5000 nM; in data set [4] (setting [7]), > 100000 nM; in data set [2] (setting [7]), > 100000 nM. Moreover, half-maximal cytotoxicity in data set [3] (CC50) was put at 10500 nM.

With `S=C(NCCc1ccccn1)Nc1ccc(Br)cn1` [Trovirdine, N-[2-(5-Bromopyridinyl)]-N′-[2-(Pyridinyl)]thiourea, reference compound], the IC50 in data set [5] (setting [10]) is 800 nM; in the data set on HIV-1 strain HTLVIIIB (p24 production in PBMC, day 7) it was 7 nM; in data set [1] (setting [6]) it was 20 nM; in data set [4] (p24 production in PBMC, day 7), > 100000 nM; in data set [2] (p24 production in PBMC, day 7) it was 500 nM. In addition, the CC50 in data set [3] is > 100000 nM.

These data come from patent US6469034B1, “Cyclohexenyl-ethyl-thiourea compounds for inhibiting HIV reverse transcriptase” (Parker Hughes Institute, priority 1999, dated 2002).
